Data published in patent US10703757B2, “Compounds and methods for CDK8 modulation and indications therefor” (Plexxikon Inc., priority 2016, dated 2020).

What follows are compounds tested on CDK8 (phosphorylation of STAT1 at serine 727 in A549 cells) (assay: Cell based Phospho-STAT1 assay (IFNγ-stimulated A549 cells, AlphaLISA)). Conditions: Homo sapiens, A549, A549 cells, phospho-STAT1 after IFNγ stimulation.
Protocol: Determine Inhibitor Activity Against CDK8 in Cell Based Phospho-STAT1 Assay
This assay measures the phosphorylation of the CDK8 substrate STAT1 following Interferon-gamma (IFNγ) stimulation^1. The lung carcinoma cell line A549 is seeded in a 96 well plate in 50 μL of culture media at 5×10^4 cells/well and incubated at 37° C. overnight. Serial dilutions of compounds (in total volume of 50 μL culture media) are added to the cells and incubated at 37° C. for one hour. Human IFNγ (R&D Systems) is added to the cells at a 10 ng/mL final concentration. 4 wells containing DMSO treated cells stimulated with IFNγ serve as high controls and 4 wells containing DMSO treated unstimulated cells serve as low controls. After 30 minute IFNγ stimulation at 37° C., the culture media is removed and 50 μL of 1×AlphaLISA lysis buffer (PerkinElmer GA, USA) is added to each well. 5 μL cell lysate is transferred to a 384 well AlphaPlate (PerkinElmer GA, USA) and 5 μL containing 0.156 nM Phospho-STAT1 (Ser727) rabbit monoclonal antibody (Cell Signaling Technology), 0.156 nM Mouse Anti-STAT1 antibody (BD Transduction Laboratories), and 10 μg/mL Anti-rabbit IgG AlphaLISA acceptor beads (PerkinElmer GA, USA) diluted in 1× AlphaLISA immunoassay buffer (PerkinElmer GA, USA) is added to the cell lysates and incubated at room temperature for 90 minutes. 5 μL Anti-Mouse IgG Alpha donor beads diluted in 1× AlphaLISA immunoassay buffer (PerkinElmer GA, USA) is added to the reaction mixture and incubated at room temperature for 90 minutes. Upon excitation of these beads with laser light at 680 nm, singlet oxygen is produced. This singlet oxygen is rapidly quenched, unless the AlphaLISA Anti-Rabbit IgG acceptor beads are in close proximity, in which case a proximity signal can be measured at […]. In the presence of cellular CDK8 catalytic activity, there is a very strong proximity signal. Selective CDK8 inhibitors affect a decrease in this proximity signal through a decrease in phosphorylation of STAT1 at serine 727. The percentage inhibition at individual concentrations relative to high and low controls is calculated. The data are analyzed by using nonlinear regression to generate IC50 values.
Compound FC(F)n1cc(-c2ccc(-c3cnc4cccc(OC5CCNCC5)n34)cc2)cn1 [Compound P-0305, 3-(4-(1-(difluoromethyl)-1H-pyrazol-4-yl)phenyl)-5-(piperidin-4-yloxy)imidazo[1,2-a]pyridine] has an IC50 of 1 to 10 µM. Work on Cn1cc(-c2ccc(-c3c[nH]c4ncc(Br)c(N5CCC(C#N)CC5)c34)cc2)cn1 [Compound P-0432, 1-[5-bromo-3-[4-(1-methylpyrazol-4-yl)phenyl]-H-pyrrolo[2,3-b]pyridin-4-yl]piperidine-4-carbonitrile] yielded an IC50 of 1 to 10 µM. Cn1ncc2cc(-c3cnc4[nH]ccc4c3N3CCC(C#N)CC3)ccc21 [Compound P-0357, 1-[5-(1-methylindazol-5-yl)-1H-pyrrolo[2,3-b]pyridin-4-yl]piperidine-4-carbonitrile] gave an IC50 of 0.0001 to 0.1 µM. In the case of Cn1ncc2cc(-c3cnn4cccc(C#CC(C)(C)O)c34)ccc21 [Compound P-0414, 2-methyl-4-(3-(1-methyl-1H-indazol-5-yl)pyrazolo(1,5-a]pyridin-4-yl)but-3-yn-2-ol], the IC50 is reported as 0.0001 to 0.1 µM. In the case of Cn1cc(-c2ccc(-c3cnn4cccc(-c5ccnc(C#N)c5)c34)cc2)cn1 [Compound P-0425, 4-[3-[4-(1-methylpyrazol-4-yl)phenyl]pyrazolo[1,5-a]pyridin-4-yl]pyridine-2-carbonitrile], the IC50 is reported as 1 to 10 µM. In the case of Cn1cc(-c2ccc(-c3cnc4cccc(OC5CCC(F)(F)CC5)n34)cc2)cn1 [Compound P-0372, 5-((4,4-difluorocyclohexyl)oxy)-3-(4-(1-methyl-1H-pyrazol-4-yl)phenyl)imidazo[1,2-a]pyridine], the IC50 is reported as 1 to 10 µM. N#CC1CCN(c2cccc3ncc(-c4ccc(CNC(=O)c5cccnc5)cc4)n23)CC1 [Compound P-0448, N-(4-(5-(4-cyanopiperidin-1-yl)imidazo[1,2-a]pyridin-3-yl)benzyl)nicotinamide] showed an IC50 of 1 to 10 µM. For Cn1cc(-c2ccc(-c3cnc4cccc(N5CCN(c6ccccn6)CC5)n34)cc2)cn1 [Compound P-0385, 3-(4-(1-methyl-1H-pyrazol-4-yl)phenyl)-5-(4-(pyridin-2-yl)piperazin-1-yl)imidazo[1,2-a]pyridine], the IC50 was 1 to 10 µM. Work on CCOC(=O)C1CCN(c2cccc3ncc(-c4ccc(-c5cnn(C)c5)cc4)n23)CC1 [Compound P-0447, ethyl 1-(3-(4-(1-methyl-1H-pyrazol-4-yl)phenyl)imidazo[1,2-a]pyridin-5-yl)piperidine-4-carboxylate] yielded an IC50 of 0.0001 to 0.1 µM. In the case of CN1CCC(Oc2cccc3ncc(-c4ccc(-c5cnn(C)c5)cc4)n23)CC1 [Compound P-0439, 3-(4-(1-methyl-1H-pyrazol-4-yl)phenyl)-5-((1-methylpiperidin-4-yl)oxy)imidazo[1,2-a]pyridine], the IC50 is reported as 0.0001 to 0.1 µM. Cn1cc(-c2ccc(-c3cnn4cccc(N5CCC(C#N)CC5)c34)cc2)cn1 [Compound P-0422, 1-(3-(4-(1-methyl-1H-pyrazol-4-yl)phenyl)pyrazolo[1,5-a]pyridin-4-yl)piperidine-4-carbonitrile] showed an IC50 of 0.0001 to 0.1 µM. Cn1cc(-c2ccc(-c3cnn4cccc(-c5cn[nH]c5)c34)cc2)cn1 [Compound P-0430, 3-(4-(1-methyl-1H-pyrazol-4-yl)phenyl)-4-(1H-pyrazol-4-yl)pyrazolo[1,5-a]pyridine] was tested, and the IC50 was 1 to 10 µM. With Cn1cc(-c2ccc(-c3cnc4cccc(N5CCC(C(N)=O)C5)n34)cc2)cn1 (stereo not drawn) [Compound P-0378, 1-(3-(4-(1-methyl-1H-pyrazol-4-yl)phenyl)imidazo[1,2-a]pyridin-5-yl)pyrrolidine-3-carboxamide] the IC50 was 0.1 to 1 µM. Work on COC(=O)C1(C)CCN(c2cccc3ncc(-c4ccc(-c5cnn(C)c5)cc4)n23)CC1 [Compound P-0399, methyl 4-methyl-1-(3-(4-(1-methyl-1H-pyrazol-4-yl)phenyl)imidazo[1,2-a]pyridin-5-yl)piperidine-4-carboxylate] yielded an IC50 of 1 to 10 µM. FC(F)n1cc(-c2ccc(-c3cnc4cccc(OC5CCSCC5)n34)cc2)cn1 [Compound P-0348, 3-(4-(1-(difluoromethyl)-1H-pyrazol-4-yl)phenyl)-5-((tetrahydro-2H-thiopyran-4-yl)oxy)imidazo[1,2-a]pyridine] showed an IC50 of 1 to 10 µM.
